Source: US20060252749A1, “Lacosamide for add-on therapy of psychosis” (SRZ Properties, Inc., priority 2005, published 2006)
“Also recorded” adds a separate entry of the source.

Key:
C57BL/6J mice = assay: Prepulse inhibition (PPI) of the acoustic startle reflex in mice; format: in vivo; conditions: for Mean PPI: 30 min prior to testing
Excerpt: Chow and water were provided ad libitum for the duration of the study.
Responses were sampled every ms. The inter-trial interval was variable with an average of 15 s (range from 10 to 20 s).

schizophrenia = conditions: cited from earlier work; for Effect on psychosis / symptoms of schizophrenia, other anticonvulsants: reports on use in schizophrenia (Citrome 2003, p. 85); for Effect on symptoms of schizophrenia: add-on to antipsychotics (Citrome 2003, p. 86)
[1] = range 60-400; cited from earlier work
GABA receptor subtypes = conditions: cited from earlier work
potassium currents = conditions: cited from earlier work
[2] = test system: voltage-gated sodium channels; conditions: cited from earlier work
[3] = test system: voltage-gated calcium channels; conditions: cited from earlier work

## CN1CCN(C2=Nc3cc(Cl)ccc3Nc3ccccc32)CC1 [clozapine]
C57BL/6J mice; VEH 1/clozapine 3 mg/kg i.p., PPI expressed as a percentage of the basic startle response
  Mean PPI: 45 ± 2

## NC(=O)N1c2ccccc2C=Cc2ccccc21 [carbamazepine]
schizophrenia; add-on to haloperidol
  Clinical outcome compared with antipsychotic monotherapy: worse clinical outcome
schizophrenia; another study on the use of carbamazepine
  Improvement on the total BPRS (brief psychiatric rating scale): failure to detect significant improvement

## CCCCCCCCCC(=O)OCCN1CCN(CC/C=C2/c3ccccc3Sc3ccc(Cl)cc32)CC1 [Zuclopenthixol decanoate]
[1]
  Minimum effective dose: 200 mg/2 weeks

## CC1(C)O[C@@H]2[C@@H](CO[C@@]3(COS(N)(=O)=O)OC(C)(C)O[C@@H]23)O1 [topiramate]
schizophrenia
  Effect on psychosis / symptoms of schizophrenia, other anticonvulsants: deterioration in both positive and negative symptoms

## COC[C@@H](NC(C)=O)C(=O)NCc1ccccc1 [lacosamide, (R)-2-acetamide-N-benzyl-3-methoxypropionamide]
GABA receptor subtypes
  Direct interaction with known GABA receptor subtypes: does not directly interact
Potassium currents
  Potentiation of potassium currents: does not potentiate
[2]
  Inhibition of voltage-gated sodium channels: does not inhibit
[3]
  Inhibition of voltage-gated calcium channels: does not inhibit
C57BL/6J mice; lacosamide 3 mg/kg/VEH 2 i.p.
  Mean PPI: 29 ± 3
C57BL/6J mice; lacosamide 10 mg/kg/VEH 2 i.p.
  Mean PPI: 34 ± 3
C57BL/6J mice; lacosamide 30 mg/kg/VEH 2 i.p.
  Mean PPI: 27 ± 2
C57BL/6J mice; lacosamide administered alone, any dose tested
  Effect on prepulse inhibition compared to vehicle: did not have any significant effect; also recorded: no significant effect

## Nc1nnc(-c2cccc(Cl)c2Cl)c(N)n1 [lamotrigine]
schizophrenia
  Effect on symptoms of schizophrenia: preferentially reduce the positive symptoms
schizophrenia; added to clozapine, double-blind placebo controlled clinical trial, treatment-resistant schizophrenia
  Effect in schizophrenia when added to clozapine: beneficial for the treatment of treatment-resistant schizophrenia; also recorded: improvement of positive, not negative symptoms

## CCCC(CCC)C(=O)O [Valproate]
schizophrenia
  Effect on symptoms of schizophrenia: preferentially reduce the positive symptoms
schizophrenia; add-on to olanzapine or risperidone (Casey et al. 2003)
  Effect on onset of action of the antipsychotic: enhance the onset of action

## NCC1(CC(=O)O)CCCCC1 [gabapentin]
schizophrenia
  Effect on psychosis / symptoms of schizophrenia, other anticonvulsants: general worsening of psychosis
